In US20230416457A1, “DUAL MODALITY UPS […] TUMOR ACIDOSIS IMAGING” (The Board of Regents of The University of Texas System, priority 2018, published 2023):

Key:
[1] = test system: orthotopic HN5 head and neck tumors; conditions: mouse, in vivo
Procedure: Female NOD-SCID mice (6-8 weeks) were purchased from UT Southwestern Medical Center Breeding Core. For orthotopic head and neck tumors, HN5 and FaDu (2×10^6 per mouse) were injected into the submental triangle area. One week after inoculation, animals with tumor size 20-100 mm^3 were used for imaging studies. Orthotopic murine 4T1 breast tumor model was established in BalB/C mice by injection of 4T1 (5×10^5 per mouse) cells into the mammary fat pads. GFP-transfected 73C murine glioblastoma tumor model was established by implanting 73C glioma cells intracranially in the left hemisphere of mice. Gliomas (2-4 mm in diameter) were formed within two weeks in mice.
For FDG experiments, mice were fasted for 12 h prior to PET imaging. Each mouse received 150 μCi of FDG in 150 μL of saline intravenously via tail vein injection. PET/CT images were acquired one hour post-injection for 15 mins. The mice were sedated on the imaging bed under 2% isoflurane for the duration of imaging. Immediately after the CT data acquisition that was performed at 80 kV and 500 μA with a focal spot of 58 μm, 15-min static PET scans were conducted. […] Reconstructed CT and PET images were fused and analyzed using Inveon Research Workplace (IRW) software. […] The target activity was quantitatively calculated as percentage injected dose per gram of tissue (% ID/g).

[2] = test system: LPS-induced tissue inflammation; parameters: species or system C57BL/6 immunocompetent mice; conditions: mouse, in vivo
macrophages = conditions: cited from earlier work

^18F-fluorodeoxyglucose [FDG]
contrast over noise ratio (CNR), FDG-PET [1]: 1.7±0.6 | anticipated PET signal in inflamed tissues [2]: strong signals | increase of FDG uptake in macrophages by LPS stimulation (macrophages): 2.5 fold
